How the values were obtained:
[1] = system: HL-60; assay: Percentage inhibition of human promyelocytic leukemia cells HL-60 differentiation induced by combined RAR and RXR agonists; Range is from 34-73; type: functional
[2] = system: HL-60; assay: Percentage of human promyelocytic leukemia cells HL-60 differentiation induced by Am80 RAR agonist; type: functional

Row | SMILES | Inhibition [1] | Inhibition [2]
1 | CC1(C)CCC(C)(C)c2cc(N(CC3CC3)c3ncc(C(=O)O)cn3)ccc21 | 73% | 
2 | CCCCCOc1cc2c(cc1N(C)c1ncc(C(=O)O)cn1)C(C)(C)CCC2(C)C |  | 44%
